Laboratory results from the supplement of paper PMC10307832.

Assays:
Assay in all cases: relative viability (nuclei count vs DMSO), 5 days (fraction); higher = more cells survive
NCI-H2347 = system: NCI-H2347
How it was run: (§1)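 Relative viability was taken as the ratio of nuclei in treated wells to nuclei in vehicle wells. Lung cancer cell lines in 1536-well plates received compounds by pin tool one day after seeding, either one drug alone or a fixed anchor-drug dose plus five library-drug doses (not always all listed) in √10 steps. Nuclei were counted on 4× images after 5 days of treatment, and values are medians of duplicate plates.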

NCI-H522 = system: NCI-H522
How it was run: as §1

EMC-BAC-2 = system: EMC-BAC-2
How it was run: as §1

NCI-H3122 = system: NCI-H3122
How it was run: as §1

HCC-44 = system: HCC-44
How it was run: as §1

NCI-H838 = system: NCI-H838
How it was run: as §1

NCI-H1395 = system: NCI-H1395
How it was run: as §1

NCI-H2023 = system: NCI-H2023
How it was run: as §1

NCI-H1993 = system: NCI-H1993
How it was run: as §1

201T = system: 201T
How it was run: as §1

NCI-H727 = system: NCI-H727
How it was run: as §1

NCI-H23 = system: NCI-H23
How it was run: as §1

BEN = system: BEN
How it was run: as §1

LCLC-103H = system: LCLC-103H
How it was run: as §1

NCI-H647 = system: NCI-H647
How it was run: as §1

NCI-H2126 = system: NCI-H2126
How it was run: as §1

NCI-H441 = system: NCI-H441
How it was run: as §1

NCI-H596 = system: NCI-H596
How it was run: as §1

NCI-H2087 = system: NCI-H2087
How it was run: as §1

NCI-H650 = system: NCI-H650
How it was run: as §1

HARA = system: HARA
How it was run: as §1

LOU-NH91 = system: LOU-NH91
How it was run: as §1

In the case of COc1nc(C)cnc1NS(=O)(=O)c1cccnc1-c1ccc(-c2nnco2)cc1 [Zibotentan] + Nc1ncn([C@H]2C[C@H](O)[C@@H](CO)O2)c(=O)n1 [Decitabine] (partner 2 µM), the relative viability (NCI-H2347; first compound 0.08 µM) is reported as 0.583, the relative viability (NCI-H2347; first compound 0.253 µM) is reported as 0.586 and the relative viability (NCI-H2347; first compound 0.8 µM) is reported as 0.744. It also gave a relative viability (NCI-H2347; first compound 2.53 µM) of 0.604, a relative viability (NCI-H522; first compound 0.08 µM) of 0.677 and a relative viability (NCI-H522; first compound 0.253 µM) of 0.5. The relative viability (NCI-H522; first compound 0.8 µM) was 0.718, the relative viability (NCI-H522; first compound 2.53 µM) was 0.756 and the relative viability (EMC-BAC-2; first compound 0.08 µM) was 1.01. It also gave a relative viability (EMC-BAC-2; first compound 0.8 µM) of 0.968, a relative viability (EMC-BAC-2; first compound 2.53 µM) of 1.01 and a relative viability (NCI-H3122; first compound 0.08 µM) of 0.472. For the same molecule, the relative viability (NCI-H3122; first compound 0.253 µM) was 0.379, the relative viability (NCI-H3122; first compound 0.8 µM) was 0.357 and the relative viability (NCI-H3122; first compound 2.53 µM) was 0.377. The relative viability (HCC-44; first compound 0.08 µM) was 1.01, the relative viability (HCC-44; first compound 0.253 µM) was 0.924 and the relative viability (HCC-44; first compound 0.8 µM) was 1.01. For the same molecule, the relative viability (HCC-44; first compound 2.53 µM) was 0.988, the relative viability (NCI-H838; first compound 0.08 µM) was 0.455 and the relative viability (NCI-H838; first compound 0.253 µM) was 0.414. The relative viability (NCI-H838; first compound 0.8 µM) was 0.545, the relative viability (NCI-H838; first compound 2.53 µM) was 0.461 and the relative viability (NCI-H1395; first compound 0.08 µM) was 0.736. The relative viability (NCI-H1395; first compound 0.253 µM) was 0.68, the relative viability (NCI-H1395; first compound 0.8 µM) was 0.708 and the relative viability (NCI-H1395; first compound 2.53 µM) was 0.674. For the same molecule, the relative viability (NCI-H2023; first compound 0.08 µM) was 0.245, the relative viability (NCI-H2023; first compound 0.253 µM) was 0.211 and the relative viability (NCI-H2023; first compound 0.8 µM) was 0.203. It also gave a relative viability (NCI-H2023; first compound 2.53 µM) of 0.214, a relative viability (NCI-H1993; first compound 0.08 µM) of 0.639 and a relative viability (NCI-H1993; first compound 0.253 µM) of 0.576. For the same molecule, the relative viability (NCI-H1993; first compound 0.8 µM) was 0.521, the relative viability (NCI-H1993; first compound 2.53 µM) was 0.61 and the relative viability (201T; first compound 0.08 µM) was 0.841. For the same molecule, the relative viability (201T; first compound 0.253 µM) was 0.865, the relative viability (201T; first compound 0.8 µM) was 0.855 and the relative viability (201T; first compound 2.53 µM) was 0.919. The relative viability (NCI-H727; first compound 0.08 µM) was 0.942, the relative viability (NCI-H727; first compound 0.253 µM) was 0.826 and the relative viability (NCI-H727; first compound 0.8 µM) was 0.908. It also gave a relative viability (NCI-H727; first compound 2.53 µM) of 0.874, a relative viability (NCI-H23; first compound 0.08 µM) of 0.321 and a relative viability (NCI-H23; first compound 0.253 µM) of 0.286. The relative viability (NCI-H23; first compound 0.8 µM) was 0.34, the relative viability (NCI-H23; first compound 2.53 µM) was 0.38 and the relative viability (BEN; first compound 0.08 µM) was 0.784. It also gave a relative viability (BEN; first compound 0.253 µM) of 0.691, a relative viability (BEN; first compound 0.8 µM) of 0.734 and a relative viability (BEN; first compound 2.53 µM) of 0.646. It also gave a relative viability (LCLC-103H; first compound 0.08 µM) of 0.718, a relative viability (LCLC-103H; first compound 0.253 µM) of 0.727 and a relative viability (LCLC-103H; first compound 0.8 µM) of 0.738. It also gave a relative viability (LCLC-103H; first compound 2.53 µM) of 0.709, a relative viability (NCI-H647; first compound 0.08 µM) of 0.438 and a relative viability (NCI-H647; first compound 0.253 µM) of 0.341. For the same molecule, the relative viability (NCI-H647; first compound 0.8 µM) was 0.448, the relative viability (NCI-H647; first compound 2.53 µM) was 0.509 and the relative viability (NCI-H2126; first compound 0.08 µM) was 0.617. The relative viability (NCI-H2126; first compound 0.253 µM) was 0.602, the relative viability (NCI-H2126; first compound 0.8 µM) was 0.599 and the relative viability (NCI-H2126; first compound 2.53 µM) was 0.551. It also gave a relative viability (NCI-H441; first compound 0.08 µM) of 0.244, a relative viability (NCI-H441; first compound 0.253 µM) of 0.273 and a relative viability (NCI-H441; first compound 0.8 µM) of 0.264. For the same molecule, the relative viability (NCI-H441; first compound 2.53 µM) was 0.225, the relative viability (NCI-H596; first compound 0.08 µM) was 0.992 and the relative viability (NCI-H596; first compound 0.253 µM) was 0.911. For the same molecule, the relative viability (NCI-H596; first compound 0.8 µM) was 1.06, the relative viability (NCI-H596; first compound 2.53 µM) was 1.04 and the relative viability (NCI-H2087; first compound 0.08 µM) was 0.342. It also gave a relative viability (NCI-H2087; first compound 0.253 µM) of 0.287, a relative viability (NCI-H2087; first compound 0.8 µM) of 0.325 and a relative viability (NCI-H2087; first compound 2.53 µM) of 0.331. It also gave a relative viability (NCI-H650; first compound 0.08 µM) of 0.298, a relative viability (NCI-H650; first compound 0.253 µM) of 0.297 and a relative viability (NCI-H650; first compound 0.8 µM) of 0.352. For the same molecule, the relative viability (NCI-H650; first compound 2.53 µM) was 0.311, the relative viability (HARA; first compound 0.08 µM) was 0.551 and the relative viability (HARA; first compound 0.8 µM) was 0.515. It also gave a relative viability (HARA; first compound 2.53 µM) of 0.497, a relative viability (LOU-NH91; first compound 0.08 µM) of 0.799 and a relative viability (LOU-NH91; first compound 0.253 µM) of 0.78. It also gave a relative viability (LOU-NH91; first compound 0.8 µM) of 0.879 and a relative viability (LOU-NH91; first compound 2.53 µM) of 0.815.
